# Reference: patent US12686676B2, “Compound, endothelin-A receptor antagonist, and pharmaceutical composition” (Alchemedicine, Inc., priority 2021, dated 2026)
# Legend:
# [1] = Metabolic stability in human liver microsome; assay type: in vitro ADME; settings: after 30 minutes with NADPH; further: tested at 0.99 µM
# Description: The metabolic stability in a human liver microsome was evaluated by the following method.
# • (1) Human liver microsome: 20 mg/mL • (2) Test compound: 1.1 mM solution in DMSO • (3) Potassium phosphate buffer solution: 66.7 mM (pH 7.4) • (4) NADPH solution: 10 mM in a potassium phosphate buffer solution • (5) Quenching solution: 0.5% formic acid solution in acetonitrile containing warfarin as an internal standard 2. Method
# 971.5 μL of the potassium phosphate buffer solution and 27.5 μL of the human liver microsome were placed in a propylene tube and suspended. 1 μL of the test compound was added thereto, and a 180 μL aliquot of this mixture was transferred to a fresh tube. The mixture was preincubated at 37° C. for 5 minutes. Then, 20 μL of the NADPH solution (for an incubation time of 30 minutes) or 20 μL of the potassium phosphate buffer solution (for an incubation time of 0 minutes) was added thereto. After incubation, the reaction was terminated by the addition of 200 μL of the quenching solution. Subsequently, the tube was centrifuged at 3220×g for 20 minutes, and the concentration of an unchanged form of the test compound in […] of a supernatant was measured by LC-MS/MS. On the basis of the obtained peak area of the unchanged form, the residual rate (%) of the unchanged form was calculated using the rate of 0 minutes of incubation time as 100%.
# [2] = PAMPA membrane permeability test; assay type: in vitro ADME; settings: 10 μM, room temperature, 16 hours
# Description: The membrane permeability test was carried out using PAMPA. The specific method is as follows. • (1) Lecithin was added at 2% (w/v) into a dodecane solution and completely dissolved. • (2) 5 μL of the lecithin/dodecane solution was added to each well of a donor plate. In this respect, a pipette tip was positioned in no contact with the membrane. • (3) Immediately thereafter, 150 μL of a donor solution (5% DMSO-PBS) containing an evaluation compound (10 μM) was added to each well of the donor plate, and 300 μL of an aqueous buffer was added to each well of a PTFE acceptor plate. • (4) The donor plate filled with the donor solution containing the evaluation compound was slowly placed on the acceptor plate, and the undersurface of the membrane was confirmed to be in contact with the buffer in all the wells. • (5) After covering, the apparatus was incubated at room temperature for 16 hours. • (6) After incubation, 100 μL of the solution was recovered from each of the upper surface and the undersurface of the membrane in the acceptor plate, and acetonitrile containing an equal amount of an internal standard was added thereto. • (7) The concentration of the evaluation compound was measured to calculate a permeation rate.
# A sample having a membrane permeation rate value of 1×10^−8 cm/sec or lower was given “C”; a sample having a value in the range of higher than 1×10^−8 cm/sec and 10×10^−8 cm/sec or lower was given “B”; and a sample having a value of higher than 10×10^−8 cm/sec was given “A”.
# [3] = target: T1, human endothelin A receptor (Homo sapiens, UniProt P25101); assay: Endothelin A receptor inhibitory effect (aequorin light emission, endothelin at EC80); assay type: cell-based; settings: for IC50: CHO-K1-mt aequorin cells expressing human endothelin A receptor, endothelin at EC80, read-out: ETA receptor inhibitory effect; for ETA selectivity (ETB/ETA): ETB IC50 value/ETA IC50 value
# T1 construct: expressed in transfected cells; host or cells: CHO-K1-mt aequorin cells
# T1 sequence (P25101 21-427): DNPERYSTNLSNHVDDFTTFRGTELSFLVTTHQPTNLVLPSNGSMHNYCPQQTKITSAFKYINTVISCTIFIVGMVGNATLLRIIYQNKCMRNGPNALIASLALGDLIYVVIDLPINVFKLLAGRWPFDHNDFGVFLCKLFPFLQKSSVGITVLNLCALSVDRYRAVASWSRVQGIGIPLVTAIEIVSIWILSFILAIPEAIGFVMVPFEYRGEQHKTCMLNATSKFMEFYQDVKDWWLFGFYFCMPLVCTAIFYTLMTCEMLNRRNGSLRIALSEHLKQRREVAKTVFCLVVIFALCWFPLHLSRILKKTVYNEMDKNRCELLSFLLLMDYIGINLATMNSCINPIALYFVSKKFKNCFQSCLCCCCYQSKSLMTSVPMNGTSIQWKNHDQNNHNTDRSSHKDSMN
# Description: The inhibitory effect on an endothelin A receptor was studied by the following method.
# CHO-K1-mt aequorin cells forced to express a human endothelin A receptor (Accession Number NP_001948.1) were cultured in an antibiotic-free medium for 18 hours, then treated with PBS-EDTA (5 mM EDTA), centrifuged (2 min, 405×g, room temperature), and then suspended in an assay buffer (DMEM/HAM's F12 with HEPES+0.1% BSA protease free).
# 1×10^6 cells/mL of the cells were incubated at room temperature for 4 hours in the presence of coelenterazine h (Molecular Probes, Inc.) (final concentration: 5 µM). Agonistic reaction based on endothelin was confirmed to determine an endothelin concentration corresponding to EC80.
# Subsequently, 50 µL (10000 cells/well) of the cell suspension treated with coelenterazine h and 50 µL of an assay buffer containing a test substance (final concentration: 0.5% in DMSO) were added to each well of a 96-well plate. 15 minutes later, endothelin was added such that its final concentration was an EC80 concentration. Receptor activity was measured as the quantity of light emission in FDSS6000 (Hamamatsu Photonics K.K.). IC50 values were calculated using XLfit (ID Business Solutions Ltd. (IDBS)).
SMILES,"Metabolic stability (human), residual rate of the unchanged form [1]",Membrane permeation rate [2],IC50 [3],ETA selectivity (ETB/ETA) [3]
"Cc1cc2c(cc1C#Cc1ncccc1S(=O)(=O)Nc1noc(C)c1C)C(C)(C)OC2 [Example 1, N-(4,5-Dimethylisoxazol-3-yl)-2-((3,3,6-trimethyl-1,3-dihydroisobenzofuran-5-yl)ethynyl)pyridine-3-sulfonamide]",59%,A (value of higher than 10×10^−8 cm/sec),≤ 1 nM,++ (ETB IC50 value/ETA IC50 value of higher than 5000)
"Cc1cc2c(cc1C#Cc1ncccc1S(=O)(=O)Nc1noc(C)c1C)C(=O)OC2 [Example 4, N-(4,5-Dimethylisoxazol-3-yl)-2-((6-methyl-3-oxo-1,3-dihydroisobenzofuran-5-yl)ethynyl)pyridine-3-sulfonamide]",49%,C (membrane permeation rate value of 1×10^−8 cm/sec or lower),≤ 1 nM,++ (ETB IC50 value/ETA IC50 value of higher than 5000)
"Cc1onc(NS(=O)(=O)c2cccnc2C#Cc2ccc3c(c2)COC3)c1C [Example 5, 2-((1,3-Dihydroisobenzofuran-5-yl)ethynyl)-N-(4,5-dimethylisoxazol-3-yl)pyridine-3-sulfonamide]",63%,B (value in the range of higher than 1×10^−8 cm/sec and 10×10^−8 cm/sec or lower),1 to 10 nM,
"Cc1onc(NS(=O)(=O)c2cccnc2C#Cc2cc3c(cc2Cl)COC3)c1C [Example 6, 2-((6-Chloro-1,3-dihydroisobenzofuran-5-yl)ethynyl)-N-(4,5-dimethylisoxazol-3-yl)pyridine-3-sulfonamide]",56%,A (value of higher than 10×10^−8 cm/sec),1 to 10 nM,
"Cc1cc2c(cc1C#Cc1ncccc1S(=O)(=O)Nc1onc(C)c1C)C(C)(C)OC2 [Example 8, N-(3,4-Dimethylisoxazol-5-yl)-2-((3,3,6-trimethyl-1,3-dihydroisobenzofuran-5-yl)ethynyl)pyridine-3-sulfonamide]",73%,B (value in the range of higher than 1×10^−8 cm/sec and 10×10^−8 cm/sec or lower),≤ 1 nM,++ (ETB IC50 value/ETA IC50 value of higher than 5000)
"Cc1cc2c(cc1C#Cc1ncccc1S(=O)(=O)Nc1onc(C)c1Cl)C(C)(C)OC2 [Example 9, N-(4-Chloro-3-methylisoxazol-5-yl)-2-((3,3,6-trimethyl-1,3-dihydroisobenzofuran-5-yl)ethynyl)pyridine-3-sulfonamide]",28%,A (value of higher than 10×10^−8 cm/sec),≤ 1 nM,++ (ETB IC50 value/ETA IC50 value of higher than 5000)
"COc1nc(C)cnc1NS(=O)(=O)c1cccnc1C#Cc1cc2c(cc1C)COC2(C)C [Example 10, N-(3-Methoxy-5-methylpyrazin-2-yl)-2-((3,3,6-trimethyl-1,3-dihydroisobenzofuran-5-yl)ethynyl)pyridine-3-sulfonamide]",66%,A (value of higher than 10×10^−8 cm/sec),≤ 1 nM,++ (ETB IC50 value/ETA IC50 value of higher than 5000)

# Now from value to molecule, other results behind:
"Metabolic stability (human), residual rate of the unchanged form [1]",Membrane permeation rate [2],IC50 [3],SMILES,ETA selectivity (ETB/ETA) [3]
47%,A (value of higher than 10×10^−8 cm/sec),≤ 1 nM,"Cc1cc2c(cc1C#Cc1ncccc1S(=O)(=O)Nc1noc(C)c1C)COC2 [Example 3, N-(4,5-Dimethylisoxazol-3-yl)-2-((6-methyl-1,3-dihydroisobenzofuran-5-yl)ethynyl)pyridine-3-sulfonamide]",++ (ETB IC50 value/ETA IC50 value of higher than 5000)
44%,A (value of higher than 10×10^−8 cm/sec),≤ 1 nM,"Cc1cc2c(cc1C#Cc1ncccc1S(=O)(=O)Nc1noc(C)c1Cl)C(C)(C)OC2 [Example 7, N-(4-Chloro-5-methylisoxazol-3-yl)-2-((3,3,6-trimethyl-1,3-dihydroisobenzofuran-5-yl)ethynyl)pyridine-3-sulfonamide]",
